{
  "source": "patent US20230025316A1",
  "about": "“OLAPARIB PHARMACEUTICAL COMPOSITION, FORMULATION THEREOF, PREPARATION METHOD THEREOF AND USE THEREOF” (Sinotherapeutics Inc., priority 2020, published 2023)",
  "key": {"[1]": {"experiment": "Apparent solubility in pH 6.8 phosphate buffer (shaker, HPLC)", "type": "physicochemical", "experimental": "3. Apparent solubility: excess amount of Olaparib pharmaceutical composition was weighed into a container, about ⅔ of the volume of the container with pH 6.8 phosphate buffer was added, and the container was placed in a shaker at 37° C. for 2 h. After filtering the contents of the container with a 0.45 μm filter membrane, the filtrate was collected, diluted with an appropriate amount of acetonitrile, mixed by vortex, and the concentration of Olaparib was determined by HPLC analysis."}, "[2]": {"experiment": "Dissolution, USP Method 1 (Basket Method), pH 6.8 phosphate buffer", "type": "physicochemical", "conditions": "900 mL, 100 rpm, 37.5° C., 150 mg Olaparib/cup", "experimental": "5. Dissolution sample analysis: the same as the HPLC analysis method described in the above-mentioned apparent solubility assay.\nThe main absorption site of drugs in the human body is the small intestine, and the pH value in the small intestine is about 6.8. According to the method described above, the dissolution of each Olaparib-cyclodextrin pharmaceutical composition in pH 6.8 phosphate buffer was determined, and the results were shown in Table 1-4."}},
  "data": [
    {"compound": "O=C(c1cc(Cc2n[nH]c(=O)c3ccccc23)ccc1F)N1CCN(C(=O)C2CC2)CC1", "note": "[API, 4-[(3-{[4(cyclopropylcarbonyl)piperazin-1-yl]carbonyl}-4-fluorophenyl)methyl]phthalazin-1(2H)-one]", "values": [
      {"measurement": "solubility at 2 h", "setting": "[1]; aqueous buffer, thermodynamic from solid, pH 6.8 phosphate buffer, 37° C., 2 h", "result": "< 100", "unit": "µg/mL"},
      {"measurement": "Solubility ratio (Composition/API)", "setting": "[1]; pH 6.8 buffer, apparent solubility relative to API", "result": 1},
      {"measurement": "Cumulative dissolution in pH 6.8 phosphate buffer", "setting": "[2]; 15 min", "result": 12.2, "unit": "%"},
      {"measurement": "Cumulative dissolution in pH 6.8 phosphate buffer", "setting": "[2]; 30 min", "result": 21.4, "unit": "%"},
      {"measurement": "Cumulative dissolution in pH 6.8 phosphate buffer", "setting": "[2]; 45 min", "result": 30.2, "unit": "%"},
      {"measurement": "Cumulative dissolution in pH 6.8 phosphate buffer", "setting": "[2]; 60 min", "result": 37.5, "unit": "%"},
      {"measurement": "Cumulative dissolution in pH 6.8 phosphate buffer", "setting": "[2]; 90 min", "result": 39.8, "unit": "%"}
    ]}
  ]
}
